# In publication PMC6748860, “High-resolution crystal structures of a myxobacterial phytochrome at cryo and room temperatures” (Structural Dynamics, 2019):
# Key:
# [1] = target: T1, SaBphP2 PCM (Allostigmatella aurantiaca, UniProt Q09E27, H275T); assay: X-ray crystal structure ([…] Å, […] K); assay type: binding; conditions: covalent (thioether to Cys13); Pr state, dark; chromophore
# T1 construct: gene STIAU_8420; photosensory core module PAS-GAF-PHY, residues 1-497, histidine kinase domain removed; homodimer; BV on Cys13
# [2] = target: T2, SaBphP2 PCM (Allostigmatella aurantiaca, UniProt Q09E27); assay: X-ray crystal structure ([…] Å, […] K; SFX […] Å, […] K); assay type: binding; conditions: covalent (thioether to Cys13); Pr state, dark; chromophore
# T2 construct: gene STIAU_8420; photosensory core module PAS-GAF-PHY, residues 1-497, histidine kinase domain removed; homodimer; BV on Cys13
# T2 sequence (Q09E27 entry or part of it): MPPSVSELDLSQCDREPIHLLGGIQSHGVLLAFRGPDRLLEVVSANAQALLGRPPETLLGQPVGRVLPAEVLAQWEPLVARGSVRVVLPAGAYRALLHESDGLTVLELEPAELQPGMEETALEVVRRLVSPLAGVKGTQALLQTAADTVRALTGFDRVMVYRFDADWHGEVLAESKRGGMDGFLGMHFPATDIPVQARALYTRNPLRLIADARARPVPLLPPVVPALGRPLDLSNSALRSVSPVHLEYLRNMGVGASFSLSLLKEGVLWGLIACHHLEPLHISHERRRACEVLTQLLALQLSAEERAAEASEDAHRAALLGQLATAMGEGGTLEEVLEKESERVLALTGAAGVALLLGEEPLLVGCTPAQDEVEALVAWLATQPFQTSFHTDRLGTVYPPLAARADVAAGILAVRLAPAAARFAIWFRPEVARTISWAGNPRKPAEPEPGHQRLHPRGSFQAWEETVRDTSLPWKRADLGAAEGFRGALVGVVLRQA
# T1 sequence (Q09E27 entry or part of it H275T): as the sequence (Q09E27 entry or part of it) above, with H275T counted along it
smiles,measurement,setting,value
C=CC1=C(C)C(=Cc2[nH]c(C=C3N=C(C=C4NC(=O)C(C)=C4C=C)C(C)=C3CCC(=O)O)c(CCC(=O)O)c2C)NC1=O [biliverdin],"X-ray crystal structure (2.2 Å, 100 K)",[1],The cryostructure of the His275Thr mutant is essentially identical to that of the wild-type
same,"X-ray crystal structure (1.65 Å, 100 K; SFX 2.1 Å, 293 K)",[2],The BV chromophore is bound to Cys13 close to the N-terminus
